For data set [1], the system named is NIH3T3 cells. Put plainly: Cell viability of NIH3T3 cells. In kind it is cell-based. Conditions: up to 30 μM. On the procedure: In order to determine the toxicity of punicalagin, the effect of NIH3T3 cells on cell viability and the weight change of 8-week-old wild-type mice were evaluated, and the heart, liver, and lung were extracted from 30-week-old lupus mice and were histologically evaluated by performing hematoxylin-eosin staining.

Data set [2] concerns C57BL6N mice with pruritus induced by PAR2-AP. As to the kind of experiment: Pruritus induced by PAR2-AP in mice (number of scratches). The format is in vivo. As to conditions: for number of scratches during the initial 10 minutes: saline group 104; for number of scratches for 40 minutes: PAR2-AP group about 240. As for the experimental part: In seven-week-old C57BL6N mice, it was confirmed whether punicalagin (PG) has an effect of alleviating pruritus symptoms induced by PAR2 receptor activation by PAR2-AP (activating peptide). In addition, the effects of punicalin (PNC) and ellagic acid (EA), which are metabolites of punicalagin and contained in pomegranate peel in a large amount, were also confirmed.
Specifically, each of 0, 1, 3, and 10 mg/kg punicalagin (n=4) was dissolved in physiological saline and intraperitoneally injected, and after 30 minutes, 100 μg of PAR2-AP was intradermally injected to induce pruritus. As control groups, a group which was intraperitoneally injected with physiological saline only (n=4) and a group which was intraperitoneally injected with 10 mg/kg punicalagin (n=4) were established, and the number of scratches was measured for 40 minutes.

The subject of data set [3] is ICR mice with atopic dermatitis induced by DNFB. As to the kind of experiment: Atopic dermatitis and pruritus induced by DNFB in mice. The format is in vivo. As to conditions: 3 mg/kg intraperitoneally daily. On the procedure: In 12-week-old ICR mice, it was confirmed whether punicalagin inhibits pruritus caused by atopic dermatitis induced by 1-fluoro-2,4-dinitrobenzene (DNFB).
Specifically, as shown in panel A of FIG. 19, punicalagin (PG) was dissolved in physiological saline and intraperitoneally injected at 3 mg/kg daily for 17 days, and atopic dermatitis and pruritus were induced by treating 0.15% DNFB dissolved in acetone with a cotton swab on the back of the mice on the 10th, 13th, 20th, and 27th days.

The target of data set [4] is T1, PAR2 (Homo sapiens, UniProt P55085).
T1 sequence (P55085 26-397): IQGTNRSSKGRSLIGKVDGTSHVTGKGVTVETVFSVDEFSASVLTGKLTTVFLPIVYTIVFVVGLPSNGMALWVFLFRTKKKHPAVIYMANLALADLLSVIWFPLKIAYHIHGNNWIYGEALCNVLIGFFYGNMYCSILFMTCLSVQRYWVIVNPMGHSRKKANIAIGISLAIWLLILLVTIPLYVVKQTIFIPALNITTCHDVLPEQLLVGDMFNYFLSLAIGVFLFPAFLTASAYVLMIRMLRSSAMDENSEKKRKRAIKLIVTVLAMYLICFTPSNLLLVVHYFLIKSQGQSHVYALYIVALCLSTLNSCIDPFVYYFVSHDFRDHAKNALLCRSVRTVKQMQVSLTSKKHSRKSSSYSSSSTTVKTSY
Put plainly: Cytokine secretion by PAR2-AP in primary cultured human conjunctival epithelial cells (ELISA). The format is cell-based. Set-up: endogenous in cells. Conditions: 10 μM, 100 μM PAR2-AP, 24 hours. On the procedure: In order to determine whether punicalagin inhibits cytokine secretion by PAR2 receptor activity, human conjunctival epithelial cells, which were primary cultured and differentiated in a transwell, were treated with 100 μM PAR2-AP or 10 μM punicalagin for 24 hours, and then, by collecting the culture medium from the apical membrane, cytokine concentrations were measured by the enzyme-linked immunosorbent assay.
For orientation: In an ELISA, binding on a coated surface is turned into a signal by an enzyme label.

Data set [5] concerns the target T1, PAR2. Put plainly: Cellular signal changes and inflammatory cytokine secretion by PAR2 receptor activity in human glomerular podocytes. The arrangement: endogenous in cells. The format is cell-based. On the procedure: The effects of punicalagin on cellular signal changes and inflammatory cytokine secretion by PAR2 receptor activity in human glomerular podocytes were evaluated.

For data set [6], the target named is T1, PAR2. As to the kind of experiment: Increase of intracellular calcium ions by PAR2-AP in HT-29 cells (Fluo4-NW). In kind it is cell-based. The arrangement: endogenous in cells; host or cells: HT-29 colon cancer cells. As to conditions: HT-29 cells. On the procedure:
After colon cancer cells (HT-29) were cultured for 48 hours in a 96-well micro plate with the RPMI1640 culture medium, the culture medium was removed, and then, 100 μL of the Flou4-NW dye mixture was added. While blocking the light, it was stabilized for 1 hour such that a calcium ion dye (Ca^2+ dye) was loaded into the cells. Next, after treating punicalin (0, 3, 10, and 30 μM), punicalagin (0, 0.3, 1, 2, 3, and 10 μM), or ellagic acid (0, 30, and 100 μM) for 10 minutes by concentration, each well was treated with 30 μM PAR2-AP (PAR2-activating peptide, SLIGRL-NH2) to measure the concentration change in intracellular calcium ions.

Data set [7] deals with T1, PAR2. As to the kind of experiment: Specificity: intracellular calcium increase by trypsin, PAR1-AP, thrombin and ATP in HT-29 cells. The arrangement: endogenous in cells; host or cells: HT-29 colon cancer cells. The format is cell-based. On the procedure:
After colon cancer cells (HT-29) were cultured for 48 hours in a 96-well micro plate with the RPMI1640 culture medium, the culture medium was removed, and then, 100 μL of the Flou4-NW dye mixture was added. While blocking the light, it was stabilized for 1 hour such that a calcium ion dye (Ca^2+ dye) was loaded into the cells. Next, punicalagin was pretreated by concentration (0, 0.3, 1, 3, 10, 30, and 100 μM) for 10 minutes, and by treating 100 nM trypsin, it was measured for about 70 seconds at 1-second intervals to determine whether the concentration changes of intracellular calcium ions by PAR2 activation were an inhibitory effect by punicalagin (panel A of FIG. 2). In the same manner as the above, after punicalagin was pretreated by concentration (0, 1, 3, 10, 30, 100, and 300 μM), by treating 100 μM PAR1-AP (panel B of FIG. 2), 10 unit/mL thrombin (panel C of FIG. 2), and 100 μM ATP (panel D of FIG. 2), the concentration changes in intracellular calcium ions were measured for 70 seconds at 1-second intervals in each case.
In addition, it was compared how much it inhibited an increase in the concentration of intracellular calcium ions by trypsin, PAR1-AP, PAR2-AP, thrombin, and ATP depending on the concentration of punicalagin.

Data on one compound can be found in patent US11957699B2, “Composition comprising punicalagin for inhibiting PAR2 activity” (INDUSTRY-ACADEMIC COOPERATION FOUNDATION, YONSEI UNIVERSITY, priority 2018, dated 2024).

In general, IC50 refers to the concentration that gives 50% inhibition. For the compound `O=CC1OC(=O)c2cc(O)c(O)c(O)c2-c2c(cc(O)c(O)c2O)C(=O)OC1C1OC(=O)c2cc(O)c(O)c(O)c2-c2c(O)c(O)c3oc(=O)c4c(c(O)c(O)c5oc(=O)c2c3c54)-c2c(cc(O)c(O)c2O)C(=O)OCC1O` (centres unmarked) [punicalagin, 1,2,3,11,12,13-hexahydroxy-5,10-dioxo-8-[3,4,5,11,17,18,19,22,23,34,35-undecahydroxy-8,14,26,31-tetraoxo-9,13,25,32-tetraoxaheptacyclo[25.8.0.0^2,7.0^15,20.0^21,30.0^24,29.0^28,33]pentatnaconta-1(35),2,4,6,15,17,19,21,23,27,29,33-dodecaen-10-yl]-5,7,8,10-tetrahydrodibenzo[f,h][1,4]dioxecin-7-carbaldehyde], in data set [1], the “effect on viability of NIH3T3 cells” value is “no effect”. In addition, in data set [2] (1 mg/kg intraperitoneally, 100 μg PAR2-AP intradermally), the “number of scratches during the initial 10 minutes” value is recorded as “about 59 times”. For the same compound, in data set [2] (1 mg/kg), the “number of scratches for 40 minutes” value is “about 188 times”. For the same compound, the “number of scratches during the initial 10 minutes” value in data set [2] (3 mg/kg intraperitoneally) is about 28 times. Further, the “number of scratches for 40 minutes” value in data set [2] (3 mg/kg) is about 103 times. Also, the “number of scratches during the initial 10 minutes” value in data set [2] (10 mg/kg intraperitoneally) is given as about 14 times. For the same compound, the “number of scratches for 40 minutes” value in data set [2] (10 mg/kg) was about 40 times. Besides, the “suppression of the number of scratches caused by DNFB, measured for 30 minutes” value in data set [3] was “about 60%”. Further, the “atopic dermatitis (skin inflammation)” value in data set [3] (0.15% DNFB) is given as “significantly reduced”. Further, in data set [4], the “inhibition of GMCSF induced by PAR2-AP” value is given as 66.8%, the “inhibition of interleukin-6 (IL-6) induced by PAR2-AP” value was 59.5% and the “inhibition of interleukin-8 (IL-8) induced by PAR2-AP” value was determined as 61.6%. Besides, the “expression amounts of VCAM-1 and ICAM-1 increased by PAR2 receptor activity” value in data set [5] is recorded as “significantly reduced”. Further, in data set [5] (concentration-dependent), the “expressions of inflammatory cytokines (IL-6, IFN-γ, TNF-α, and IL-8)” value is “significantly reduced”; the “phosphorylation of ERK 1/2 according to PAR2 receptor activity by PAR2-AP” value is recorded as “inhibited”; the “phosphorylation of NF-κB P65 according to PAR2 receptor activity” value is “inhibited”. In addition, the IC50 in data set [6] (30 μM PAR2-AP, 10 minutes pretreatment, read-out: IC50, inhibition of the PAR2 receptor (intracellular calcium increase by PAR2-AP)) was determined as 1.45 µM. Also, the “strength of PAR2 receptor inhibition compared to punicalin” value in data set [6] (PAR2-AP) is at least 10 times. For the same compound, the “inhibition of increase in concentration of intracellular calcium ions” value in data set [7] (100 nM trypsin, 100 μM PAR1-AP, 10 unit/mL thrombin or 100 μM ATP, increasing punicalagin concentration) was “effect of inhibiting an increase in the concentration of calcium ions was also improved”. Further, the “selectivity for inhibition of PAR2 activity compared to ATP, thrombin, and PAR1-AP” value in data set [7] (calcium increase) was at least 10 times.
